Measurements from article PMC3164656, “Burkholderia cenocepacia BC2L-C Is a Super Lectin with Dual Specificity and Proinflammatory Activity” (PLoS Pathogens, 2011).
Values joined by “and” are separate entries in the source; they are usually repeats but may differ in a detail not shown here. Identical values can stand only once.

Tests used:
[1] = biological target: T1, BC2L-C-ct (Burkholderia cenocepacia, UniProt B4EH86); assay: Isothermal titration microcalorimetry, binding of saccharides to BC2L-C-ct; settings: ITC, 25°C; for Kd / n (stoichiometry): 20 mM Tris pH 7.5
T1 sequence (B4EH86 158-272): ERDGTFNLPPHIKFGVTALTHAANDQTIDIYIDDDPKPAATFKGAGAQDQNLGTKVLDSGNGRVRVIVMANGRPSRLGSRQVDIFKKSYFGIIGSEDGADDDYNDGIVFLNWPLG

[2] = biological target: T2, BC2L-C (Burkholderia cenocepacia, UniProt B4EH86); assay: Isothermal titration microcalorimetry, binding of saccharides to whole BC2L-C; settings: ITC, 25°C; for Kd / n (stoichiometry): 20 mM Tris pH 7.5
T2 sequence (B4EH86 1-272): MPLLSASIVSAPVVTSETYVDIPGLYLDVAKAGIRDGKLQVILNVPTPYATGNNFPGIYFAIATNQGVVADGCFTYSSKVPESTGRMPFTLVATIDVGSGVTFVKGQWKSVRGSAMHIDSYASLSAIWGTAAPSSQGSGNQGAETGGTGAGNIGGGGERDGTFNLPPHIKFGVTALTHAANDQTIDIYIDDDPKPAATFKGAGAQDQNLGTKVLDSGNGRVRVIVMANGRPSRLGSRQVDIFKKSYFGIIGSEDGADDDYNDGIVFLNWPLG

[3] = biological target: T2, BC2L-C; assay: SPR on monosaccharide-activated surfaces, whole lectin; format: binding; settings: CM5 chip, Biot-PAA-monosaccharide, 25°C
[4] = biological target: T1, BC2L-C-ct; assay: SPR on monosaccharide-activated surfaces, C-terminal domain; format: binding; settings: CM5 chip, Biot-PAA-monosaccharide, 25°C
[5] = biological target: T1, BC2L-C-ct; assay: Glycan array (Consortium for Functional Glycomics), C-terminal domain; format: binding; settings: Alexa-labelled lectin 200 µg/mL, array version 3.2
From the text: Purified BC2L-C lectin samples were labeled with Alexa Fluor 488-TFP (Invitrogen, CA) according to manufacturer's instructions and re-purified on a D-Salt polyacrylamide desalting column (Pierce, Rockford IL). Alexa-labeled proteins were used for glycan-array screening with standard procedure of the Core H of the Consortium for Functional Glycomics (Emory University, Atlanta, GA, http://www.functionalglycomics.org). The screening of the printed glycan microarray chip (version 3.2, with 377 glycans from a library of natural and synthetic glycans) was performed with a concentration of BC2L-C of 200 µg/mL dissolved in 20 mM HEPES, 140 mM NaCl, 5 mM CaCl2, pH 7.5 for all samples.

Row | Molecule | -TΔS [1] [kJ/mol] | -ΔH [1] [kJ/mol] | Kd [1] | n (stoichiometry) [1] | recognition on glycan array [5] | also measured
1 | OC[C@H]1OC(O)[C@@H](O)[C@@H](O)[C@@H]1O (stereo partly drawn) [D-Man, D-mannose] | 31.8 | 57.0 | 37.4 µM | 0.50 | shortest fragment recognized, albeit not efficiently | n (stoichiometry) ([1]; listed as Man): ~0.5; -TΔS [2]: 34.5 kJ/mol; Kd [2]: 21.8 µM; n (stoichiometry) [2]: 0.57; binding of the lectin to sugar-modified surface (SPR) [3]: interacts strongly; binding of the C-terminal domain to sugar-modified surface (SPR) [4]: binds only to mannose-coated chips
2 | C=CCO[C@H]1O[C@H]([C@@H](O)CO)[C@@H](O)[C@H](O[C@H]2O[C@H]([C@@H](O)CO)[C@@H](O)[C@H](O)[C@@H]2O)[C@@H]1O [Diheptose, allyl L-glycero-α-D-manno-heptopyranosyl-(1→3)-L-glycero-α-D-manno-heptopyranoside] | 16.0 |  | 88 µM and 88.1 µM | 0.48 |  | 
3 | CC(=O)N[C@H]1C(O)O[C@H](CO)[C@@H](O[C@@H]2O[C@H](CO)[C@H](O)[C@H](O)[C@H]2O[C@@H]2O[C@@H](C)[C@@H](O)[C@@H](O)[C@@H]2O)[C@@H]1O[C@@H]1O[C@@H](C)[C@@H](O)[C@@H](O)[C@@H]1O (stereo partly drawn) [Lewis Y] |  |  |  |  |  | -TΔS [2]: 16.2 kJ/mol; -ΔH [2]: 40.9 kJ/mol; Kd [2]: 47.5 µM; n (stoichiometry) [2]: 1 and 1.01
4 | OC[C@H]1O[C@H](OC[C@H]2OC(O)[C@@H](O)[C@@H](O[C@H]3O[C@H](CO)[C@@H](O)[C@H](O)[C@@H]3O)[C@@H]2O)[C@@H](O)[C@@H](O)[C@@H]1O (stereo partly drawn) [Trimannose, Manα1-3(Manα1-6)Man] | 97.3 | 123.2 | 28.8 µM | 0.22 |  | 
5 | C[C@H](O)[C@@H](O)[C@@H](O)[C@H](O)C=O [fucose] |  |  |  |  |  | binding of the lectin to sugar-modified surface (SPR) [3]: interacts strongly
6 | O=C[C@H](O)[C@@H](O)[C@@H](O)[C@H](O)CO [galactose] |  |  |  |  |  | binding of the lectin to sugar-modified surface (SPR) [3]: not by galactose
7 | CO[C@H]1O[C@H]([C@@H](O)CO)[C@@H](O)[C@H](O)[C@@H]1O [αMeHept, Methyl L-glycero-α-D-manno-heptopyranoside] | 20.5 | 42.1 | 150 µM | 0.56 |  | 
8 | COC1O[C@H](CO)[C@@H](O)[C@H](O)[C@@H]1O (stereo partly drawn) [αMeMan, α-methyl-mannoside] | 29.0 | 55.0 | 27.6 µM | 0.52 |  | -TΔS [2]: 46.4 kJ/mol; -ΔH [2]: 73.5 kJ/mol; Kd [2]: 18.3 µM; n (stoichiometry) [2]: 0.49
9 | Manα1–2Man |  |  |  |  | recognised | 
10 | Manα1–3Man |  |  |  |  | recognised | 
11 | Manα1–6Man |  |  |  |  | recognised | 
